Among the test systems are UO-31 renal; MDA-N; SNB-19 CNS; NCI-H522 lung; SK-MEL-5 melanoma; SR leukemia; SF-295 CNS; 786-0 renal; HL-60(TB) leukemia; COLO 205 colon; UACC-62 melanoma.
Common to all, as to assay: growth of human tumour cells (NCI), 48 h

Structures are written as SMILES.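 Values below derive from 48-hour exposures of cells grown in 96-well plates, with endpoints linearly interpolated between the two concentrations bracketing the appropriate inhibition level. TGI: total growth inhibition.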

Turning to `CCCCCC(C)SC1(C(=O)OC)CC(OC(C)=O)C(NC(C)=O)C([C@H](OC(C)=O)[C@@H](COC(C)=O)OC(C)=O)O1` (stereo not given in full), the TGI in the assay with UO-31 renal, in the assay on MDA-N, in the assay with SNB-19 CNS, in the assay with NCI-H522 lung, in the assay with SK-MEL-5 melanoma and with SR leukemia was above 100 µM each time. Moreover, the TGI with SF-295 CNS, with 786-0 renal and in the assay on HL-60(TB) leukemia was above 100 µM throughout.
On to `COc1cc(/C=C2/C[C@H]3[C@@H]4CC=C5C[C@@H](OC(C)=O)CC[C@]5(C)[C@H]4CC[C@]3(C)NC2=O)cc(OC)c1OC`, for which the TGI in the assay with COLO 205 colon is above 100 µM; in the assay on UO-31 renal it was 50.2 µM; in the assay on MDA-N, above 100 µM; in the assay with SNB-19 CNS, 41.9 µM; with UACC-62 melanoma it was 47 µM; with NCI-H522 lung it was 59.4 µM. Besides, the TGI in the assay with SK-MEL-5 melanoma was above 100 µM; in the assay with SR leukemia it was above 100 µM; in the assay on SF-295 CNS, 65.9 µM; with 786-0 renal, 36.7 µM.
With `COc1ccc(-n2c(=O)n(C)c(=O)n2-c2ccc(OC)cc2)cc1`, the TGI in the assay on COLO 205 colon, with UO-31 renal, with MDA-N, in the assay with SNB-19 CNS, in the assay on UACC-62 melanoma and in the assay on SK-MEL-5 melanoma was above 100 µM in each case. Moreover, the TGI in the assay on SR leukemia, with SF-295 CNS, with 786-0 renal and with HL-60(TB) leukemia was above 100 µM in each case.
Regarding `CC[N+]1(C)CCC(O)(c2ccc(Cl)c(Cl)c2)C(C(=O)c2ccc(Cl)c(Cl)c2)C1` (stereo not given), the TGI is above 10 µM in the assay on COLO 205 colon; above 10 µM in the assay on UO-31 renal; above 10 µM in the assay with MDA-N; above 10 µM in the assay with SNB-19 CNS; 7.44 µM with NCI-H522 lung; above 10 µM with SK-MEL-5 melanoma. Also, the TGI in the assay on SR leukemia, in the assay with SF-295 CNS, in the assay with 786-0 renal and with HL-60(TB) leukemia was above 10 µM throughout.
Take `NCCCN(CCCN)CCN(CCN(CCCN)CCCN)CCN(CCCN)CCCN`: the TGI was above 100 µM in the assay on COLO 205 colon; above 100 µM in the assay on UO-31 renal; above 100 µM in the assay on MDA-N; above 100 µM with SNB-19 CNS; 63.3 µM in the assay on NCI-H522 lung; above 100 µM with SK-MEL-5 melanoma. The TGI in the assay with SR leukemia, in the assay with SF-295 CNS and in the assay with HL-60(TB) leukemia was above 100 µM throughout.
Consider `COc1ccc(-c2cc(-c3ccc(Nc4ccnc5cc(Cl)ccc45)cc3)[nH]c(=O)c2C#N)c2ccccc12`, for which the TGI is 6.89 µM in the assay on COLO 205 colon; 15.2 µM in the assay on UO-31 renal; 6.02 µM with MDA-N; above 23.4 µM in the assay with SNB-19 CNS; 46.7 µM with UACC-62 melanoma; above 63.4 µM with SK-MEL-5 melanoma. Moreover, the TGI was 2.6 µM in the assay on SR leukemia, above 50.1 µM in the assay on SF-295 CNS, 18.3 µM in the assay with 786-0 renal and 6.04 µM in the assay with HL-60(TB) leukemia.
As for `O=C1c2cc3c(cc2CC12Cc1ccc4c(c1C2=O)CCCC4)CCCC3` (stereo not given), the TGI in the assay on UO-31 renal, with MDA-N, with SNB-19 CNS, in the assay with NCI-H522 lung, in the assay on SK-MEL-5 melanoma and in the assay on SR leukemia was above 100 µM each time. Besides, the TGI with SF-295 CNS is above 100 µM; in the assay with 786-0 renal it was 46.1 µM; in the assay on HL-60(TB) leukemia, above 100 µM.
Take `CC(=O)Nc1ccc(OC2=CCN(C)CC2)cc1`: the TGI in the assay on COLO 205 colon, in the assay on UO-31 renal, with MDA-N, in the assay on SNB-19 CNS, in the assay on UACC-62 melanoma and in the assay on SK-MEL-5 melanoma was above 100 µM each time. The TGI in the assay with SR leukemia, with SF-295 CNS, in the assay on 786-0 renal and in the assay with HL-60(TB) leukemia was above 100 µM in each case.
For the compound `CC1(C)C2C=CC1(C)C1(CC2)OCCO1` (stereo not given), the TGI with COLO 205 colon, with UO-31 renal, in the assay on MDA-N, in the assay on SNB-19 CNS, in the assay with UACC-62 melanoma and in the assay with SR leukemia was above 100 µM throughout. Also, the TGI in the assay on SF-295 CNS, in the assay with 786-0 renal and with HL-60(TB) leukemia was above 100 µM each time.
On to `CSC1=N/C(=C\c2ccco2)C(=O)N1CN1CCOCC1`, for which the TGI with COLO 205 colon, with UO-31 renal, in the assay with MDA-N, with SNB-19 CNS, with UACC-62 melanoma and with NCI-H522 lung was above 100 µM in each case. Also, the TGI with SK-MEL-5 melanoma is above 80.3 µM; in the assay on SR leukemia it was above 92.6 µM; in the assay on SF-295 CNS, above 100 µM; in the assay with 786-0 renal it was above 100 µM.
Turning to `Nc1ncnc2c1nnn2C1CCC(CP(=O)(O)O)C1` (stereo not given), the TGI in the assay with COLO 205 colon, in the assay with UO-31 renal, in the assay with MDA-N, in the assay with SNB-19 CNS, in the assay on UACC-62 melanoma and with SK-MEL-5 melanoma was above 100 µM each time. Further, the TGI with SR leukemia, in the assay with SF-295 CNS, in the assay on 786-0 renal and in the assay on HL-60(TB) leukemia was above 100 µM each time.
As to `COC1OC2COC1(OC)C1OC(C)(C)OC21` (stereo not given), the TGI in the assay with COLO 205 colon, with UO-31 renal, in the assay with MDA-N, in the assay with SNB-19 CNS, in the assay with UACC-62 melanoma and in the assay on NCI-H522 lung was above 100 µM in each case. Also, the TGI in the assay on SK-MEL-5 melanoma, in the assay with SR leukemia, in the assay on SF-295 CNS and with 786-0 renal was above 100 µM each time.
In the case of `Nc1ccccc1CC(O)C(=O)O` (stereo not given), the TGI in the assay with COLO 205 colon, with MDA-N, with SNB-19 CNS, in the assay on UACC-62 melanoma, in the assay with SK-MEL-5 melanoma and in the assay with SR leukemia was above 100 µM each time. For the same compound, the TGI with SF-295 CNS, in the assay with 786-0 renal and in the assay with HL-60(TB) leukemia was above 100 µM in each case.
As to `N#Cc1c(-c2ccc(Cl)cc2)c2c(n(C3OC(CO)C(O)C(O)C3O)c1=S)CCC2` (stereo not given), the TGI was 63.8 µM in the assay with COLO 205 colon; above 100 µM in the assay with UO-31 renal; above 100 µM with MDA-N; 71 µM with SNB-19 CNS; 34 µM in the assay on UACC-62 melanoma; 26 µM with SK-MEL-5 melanoma. In addition, the TGI in the assay with SR leukemia, in the assay on 786-0 renal and in the assay on HL-60(TB) leukemia was above 100 µM in each case.
On to `CCOC(=O)c1cnc2oc3ccc(O)cc3c2c1-c1ccccc1`, for which the TGI in the assay on COLO 205 colon, in the assay on MDA-N, with SNB-19 CNS, in the assay with UACC-62 melanoma, with SK-MEL-5 melanoma and in the assay on SR leukemia was above 100 µM throughout. Also, the TGI with SF-295 CNS, in the assay on 786-0 renal and in the assay on HL-60(TB) leukemia was above 100 µM each time.
Consider `c1ccc2c(c1)CCc1c-2n(CCN2CCOCC2)c2ccccc12`, for which the TGI with COLO 205 colon was above 100 µM; with UO-31 renal, above 100 µM; with MDA-N, above 100 µM; in the assay with SNB-19 CNS it was above 100 µM; with UACC-62 melanoma, above 100 µM; in the assay on NCI-H522 lung it was 28.6 µM. Also, the TGI in the assay on SK-MEL-5 melanoma was 51.2 µM; in the assay on SR leukemia, 38.3 µM; in the assay with SF-295 CNS, above 100 µM; in the assay with 786-0 renal it was above 100 µM.
Turning to `O=C(Cn1c(C(=O)/C=C/c2cccs2)nc2ccccc21)c1ccc(Cl)cc1`, the TGI in the assay on COLO 205 colon was 38.3 µM; in the assay on UO-31 renal, 69.6 µM; in the assay with MDA-N, 56.7 µM; in the assay with SNB-19 CNS it was above 100 µM; in the assay with UACC-62 melanoma, above 100 µM; in the assay with SK-MEL-5 melanoma, 43.3 µM. Further, the TGI in the assay with SR leukemia amounted to 22 µM; in the assay with 786-0 renal it was 32.8 µM; with HL-60(TB) leukemia it was 61.3 µM.
On to `CCN(C(=S)N[C@H](C(=O)N[C@@H](C)C(=O)OC)C(C)C)c1ccccc1`, for which the TGI with COLO 205 colon, in the assay with UO-31 renal, with MDA-N, in the assay with SNB-19 CNS, in the assay with UACC-62 melanoma and with NCI-H522 lung was above 100 µM each time. Also, the TGI is above 100 µM in the assay on SK-MEL-5 melanoma, 52.7 µM with SR leukemia, above 100 µM in the assay on SF-295 CNS and above 100 µM in the assay with 786-0 renal.
For the compound `Cc1c(NC(=O)CSC(=S)N2CCN(Cc3ccccc3)CC2)c(=O)n(-c2ccccc2)n1C`, the TGI in the assay with COLO 205 colon, in the assay on UO-31 renal, in the assay on MDA-N, in the assay on SNB-19 CNS, in the assay with NCI-H522 lung and in the assay with SK-MEL-5 melanoma was above 100 µM each time. Besides, the TGI in the assay on SR leukemia, with SF-295 CNS and in the assay on 786-0 renal was above 100 µM each time.
Turning to `O=C1/C(=N\S(=O)(=O)c2ccccc2)C([n+]2ccc(Cc3ccccc3)cc2)=C([O-])c2ccccc21`, the TGI in the assay with COLO 205 colon came out at 1.14 µM; with UO-31 renal it was 4.62 µM; with MDA-N it was 0.346 µM; with SNB-19 CNS, 3.3 µM; in the assay on UACC-62 melanoma, 2.42 µM; in the assay with NCI-H522 lung it was 2.11 µM. For the same compound, the TGI in the assay with SK-MEL-5 melanoma is 0.302 µM; in the assay on SR leukemia, above 100 µM; with SF-295 CNS, 3.22 µM; with 786-0 renal, 3.58 µM.
On to `O=c1[nH]nc(-c2ccccc2)n1/N=C/c1cccnc1`, for which the TGI in the assay with UO-31 renal, with MDA-N, in the assay on SNB-19 CNS, in the assay with NCI-H522 lung, in the assay on SK-MEL-5 melanoma and with SR leukemia was above 100 µM throughout. Also, the TGI in the assay with SF-295 CNS, with 786-0 renal and in the assay with HL-60(TB) leukemia was above 100 µM in each case.

Source of the values: PubChem BioAssay (NCI).
